We go through 22 compounds from patent US4331670A (priority 1979, dated 1982).

The subject of the first assay is Pyricularia orzae. Briefly: whole plant or invertebrate. Type of assay: in vivo, Pyricularia orzae (rice plant, Chukyo Asahi). The conditions noted are these: in Oryza sativa, 120 h, read-out: Protective value.
Take `COc1c([N+](=O)[O-])cc(C(F)(F)F)c(Nc2ncc(C(F)(F)F)cc2Cl)c1[N+](=O)[O-]` [compound 85, N-(3-chloro-5-trifluoromethyl-2-pyridyl)-2,4-dinitro-3-methoxy-6-trifluoromethylaniline]: the pest or weed control at 50 ppm is 100%.
Still for that read-out and setting: for `Cc1nc(Nc2c([N+](=O)[O-])cc([N+](=O)[O-])cc2C(F)(F)F)ccc1Cl` [compound 69] the value was 100%.
For the compound `CSc1c(C(F)(F)F)cc([N+](=O)[O-])c(Nc2ncc(C(F)(F)F)cc2Cl)c1[N+](=O)[O-]` [compound 45], the pest or weed control at 100 ppm worked out at 100%.
Take `O=[N+]([O-])c1cc([N+](=O)[O-])c(Nc2ncc(C(F)(F)F)cc2Br)c(C(F)(F)F)c1` [compound 80]: the pest or weed control at 50 ppm worked out at 100%.
Take `O=[N+]([O-])c1cc(C(F)(F)F)cc([N+](=O)[O-])c1Nc1ccc(Cl)cn1` [Compound No. 1]: the pest or weed control at 100 ppm is 91%.
Still for that read-out and setting: as for `O=[N+]([O-])c1cc(C(F)(F)F)c(F)c([N+](=O)[O-])c1Nc1ncc(C(F)(F)F)cc1Cl` [compound 38], the figure is 100%; as for `O=[N+]([O-])c1cc(C(F)(F)F)c(Cl)c([N+](=O)[O-])c1Nc1ccc(Cl)cn1` [compound 5], 100%; as for `O=[N+]([O-])c1cc(C(F)(F)F)c(O)c([N+](=O)[O-])c1Nc1ncc(C(F)(F)F)cc1Cl` [compound 47], 95%.
Still for that read-out and setting: for `Cc1cc(Nc2c([N+](=O)[O-])cc(C(F)(F)F)c(Cl)c2[N+](=O)[O-])ncc1Br` [compound 10] the value was 86%; for `Cc1nc(Nc2c([N+](=O)[O-])cc(C(F)(F)F)c(Cl)c2[N+](=O)[O-])c(Cl)c(C)c1Cl` [compound 11], 84%.
On to `O=[N+]([O-])c1cc([N+](=O)[O-])c(Nc2ncc(Br)cc2C(F)(F)F)c(C(F)(F)F)c1` [compound 84], for which the pest or weed control at 50 ppm turned out to be 100%.
Take `O=[N+]([O-])c1cc([N+](=O)[O-])c(Nc2nc(Cl)c(Br)cc2C(F)(F)F)c(C(F)(F)F)c1` [compound 82]: the pest or weed control at 50 ppm was 100%.
As for `CCc1nc(Nc2c([N+](=O)[O-])cc(C(F)(F)F)cc2[N+](=O)[O-])ccc1Br` [compound 24], the pest or weed control at 100 ppm came to 90%.
Still for that read-out and setting: for `Cc1nc(Nc2c([N+](=O)[O-])cc(C(F)(F)F)cc2[N+](=O)[O-])c(Cl)c(C)c1Cl` [compound 9] the value was 83%; for `COc1ccc(Nc2c([N+](=O)[O-])cc(C(F)(F)F)cc2[N+](=O)[O-])c(OC)n1` [Compound No. 25], 85%.
Still for that read-out and setting: as for `CCSc1c(C(F)(F)F)cc([N+](=O)[O-])c(Nc2ncc(C(F)(F)F)cc2Cl)c1[N+](=O)[O-]` [compound 46], the figure is 95%.
Turning to `O=[N+]([O-])c1cc(C(F)(F)F)cc(C(F)(F)F)c1Nc1ccc(C(F)(F)F)c(Cl)n1` [compound 92], the pest or weed control at 50 ppm came to 100%.
For the compound `Cc1c(Cl)cnc(Nc2c([N+](=O)[O-])cc(C(F)(F)F)cc2[N+](=O)[O-])c1Cl` [compound 13], the pest or weed control at 100 ppm was found to be 92%.

Another assay relates to Rhizoctonia solani. Briefly: whole plant or invertebrate. Type of assay: in vivo, Rhizoctonia solani (rice plant, Chukyo Asahi). The note with it: in Oryza sativa, 120 h, read-out: Preventive value.
Turning to `COc1c([N+](=O)[O-])cc(C(F)(F)F)c(Nc2ncc(C(F)(F)F)cc2Cl)c1[N+](=O)[O-]` [compound 85, N-(3-chloro-5-trifluoromethyl-2-pyridyl)-2,4-dinitro-3-methoxy-6-trifluoromethylaniline], the pest or weed control at 100 ppm worked out at 100%.
On the same count and under the same terms, for `CSc1c(C(F)(F)F)cc([N+](=O)[O-])c(Nc2ncc(C(F)(F)F)cc2Cl)c1[N+](=O)[O-]` [compound 45] the value was 100%; for `O=[N+]([O-])c1cc([N+](=O)[O-])c(Nc2ncc(C(F)(F)F)cc2Br)c(C(F)(F)F)c1` [compound 80], 100%.
Still for that read-out and setting: for `O=[N+]([O-])c1cc(C(F)(F)F)c(O)c([N+](=O)[O-])c1Nc1ncc(C(F)(F)F)cc1Cl` [compound 47] the value was 95%; for `O=[N+]([O-])c1cc([N+](=O)[O-])c(Nc2c(Cl)cncc2Cl)c(C(F)(F)F)c1` [compound 79], 90%.
The same measure, in the same setting: for `Cc1cc(Cl)cc(Nc2c([N+](=O)[O-])cc([N+](=O)[O-])cc2C(F)(F)F)n1` [compound 73] the value was 87%; for `O=[N+]([O-])c1cc([N+](=O)[O-])c(Nc2cc(Cl)cc(Cl)n2)c(C(F)(F)F)c1` [compound 72], 100%; for `O=[N+]([O-])c1cc(C(F)(F)F)c(Cl)c([N+](=O)[O-])c1Nc1cc(Cl)cc(Cl)n1` [Compound No. 6], 100%.
